Results reported in patent publication US20170340636A1, “COMPOSITIONS AND METHODS FOR INHIBITION OF AUTOPHAGY” (Board of Regents, The University of Texas System, priority 2016, published 2017).
“Also recorded” adds a separate entry of the source.

Legend:
[1] = molecular target: T1, TAOK2 (Rattus norvegicus, UniProt Q9JLS3); assay: Differential scanning fluorimetry (DSF) binding assay against TAOK2; details: DSF melt temperature shift of TAOK2, 5 μM TAOK2, compound 1 μM
T1 construct: made in house
T1 sequence (Q9JLS3 1-320 limits assumed): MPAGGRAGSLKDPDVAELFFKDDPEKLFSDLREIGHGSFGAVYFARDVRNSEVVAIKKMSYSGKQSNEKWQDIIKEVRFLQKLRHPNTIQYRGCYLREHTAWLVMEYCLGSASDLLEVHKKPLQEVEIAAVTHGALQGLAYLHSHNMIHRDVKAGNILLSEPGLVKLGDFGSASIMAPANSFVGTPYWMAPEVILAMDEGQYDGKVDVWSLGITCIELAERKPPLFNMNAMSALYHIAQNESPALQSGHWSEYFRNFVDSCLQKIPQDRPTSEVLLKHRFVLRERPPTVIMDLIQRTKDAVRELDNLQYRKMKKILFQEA
Method: (§1) Differential scanning fluorimetry binding assays of selected compounds against TAOK2 were conducted to measure strength of compound binding. A solution of 5 μM TAOK2, 50 mM MgCl2, 50 mM HEPES pH 7.5, and 2.5x SyproOrange(Life Technologies) was made. Compound was added to a final concentration of 1 μM. 25 μl of the reaction solution was added to the wells of a Biorad Multiplate 96 wellclear PCR plate. The plate was covered with a Biorad Microseal ‘B’ seal. Plates were read in a Biorad CFX96 Real-Time PCR system. The temperature was increased from 4° C. to 80° C., with fluorescence measurements being taken every 0.5° C. in the 6-FAM Fluorescein channel. The fluorescence response to heat curve was fit to a binding isotherm in order to determine the inflection point, which was taken as the melt temperature (Tm).
The prevalence of multiple heterocycles in the compounds is reflective of the composition of the screen (described in Methods in Supplemental Material). These 13 compounds were purchased from Chembridge Inc. and ChemDiv Inc. for measurement of direct binding using Differential Scanning Fluorimetry (DSF). DSF measures protein melt temperature (Tm) with a lipophilic dye (SyproOrange). As the temperature of the solution is increased, measurements of dye fluorescence are taken. When the protein begins to denature, hydrophobic regions in the protein are exposed, and the dye is able to bind. This binding insulates the dye from the surrounding water, reducing quenching effects and allowing fluorescence. Binding of small molecules to protein has a stabilizing effect, and this is seen by an increase in melt temperature (Table 1). The ΔTm values ranged from 3.0 to −0.6° C. The three compounds with the highest positive shifts were SW034538, SW163112, and SW083688, with 3° C., 2.2° C., and 2° C. shifts, respectively.

[2] = system: U2OS GFP-LC3 cells; assay: GFP-LC3 accumulation by flow cytometry (autophagic flux); format: cell-based, human; details: 50 μM, 24 hours
Method: FIG. 4A) U2OS cells stably expressing the GFP-LC3 fusion transgene were treated with the indicated compound at 50 μM concentration for 24 hours before GFP fluorescence was measured by flow cytometry. The median fluorescent value from 20,000 cells per condition was normalized to that of vehicle alone (DMSO) within a given experiment. The mean+SD of >2 independent experiments is shown. ****, p<0.0001; ***, p<0.001; **, p<0.01; ns, p>0.05 versus vehicle alone (DMSO) by unpaired t test. FIG. 4B) TAOK2 inhibitors induce accumulation of p62. U2OS GFP-LC3 cells were treated with the indicated compounds at 50 μM concentration, or DMSO alone, for 24 hours. Lysates were collected and analyzed by western blot using the indicated antibodies. XPB was used as a loading control.
U2OS GFP-LC3 cells were seeded in 6-well plates at 150,000 cells per well in Dulbecco's Modified Eagle Medium supplemented with 10% fetal bovine serum. Twenty-four hours after seeding, the indicated compounds were added to a final concentration of 50 μM, or an equivalent volume of vehicle alone (DMSO) was added. Twenty-four hours after compound addition, cells were rinsed with PBS (Phosphate-Buffered Saline) and analyzed by flow cytometry using a FACS Calibur (BD Biosciences) to measure media GFP fluorescence per cell.
It had previously been determined that TAOK2 is required for autophagic flux in cancer cells. siRNA targeting TAOK2 elicited an expression response similar to siRNA targeting known autophagy genes, such as ULK1, a protein kinase involved in mTOR and AMPK signaling, in the human colon cancer cell line HCT116. TAOK2 depletion also impaired autophagic flux in human osteosarcoma cell line U2OS engineered to stably express the autophagy marker 1A/1B-light chain 3 fused to GFP (GFP-LC3), a microtubule associated protein.
Degradation of the autophagy scaffold and LC3 binding protein p62 is a second marker of autophagic flux. p62 degradation was assayed by Western blotting (FIG. 4B).

[3] = system: 45 off-target kinases; assay: Specificity screen against 45 kinases (Eurofins Cerep); format: biochemical; details: inhibition higher than 50% considered significant
Method: Of the 13 inhibitors, 3 were tested for cross-reactivity against 45 off-target kinases.
(§2) The difference between the TAOK2 ΔTm and that of p38 and ASK1 was determined. […] The majority of the other compounds were also preferentially inhibitory toward TAOK2. Of the 13 compounds, SW034538, SW172006 and SW083688 were cross-verified for selectivity by performing a specificity screen against 45 kinases commercially at Eurofins Cerep, Inc. (FIG. 3).

[4] = system: p38 and ASK1; assay: DSF selectivity for TAOK2 over small panel of other MAPK cascade members; format: binding; details: versus p38 and ASK1
Method: as §1, §2

Row | SMILES | ΔTm at 1 µM [1] | impairment of autophagic flux (accumulation of GFP-LC3) [2] | specificity toward TAOK2 in screen against 45 kinases [3] | selectivity for TAOK2 according to DSF [4]
1 | CCC(=O)Nc1nc(C)c(-c2csc(Nc3cc(OC)ccc3OC)n2)s1 [SW034538] | 3 °C | showing inhibition; also recorded: effective | cross-reactivity with respect to six of the 45 kinases | selective
2 | CCOCCCn1c(=S)[nH]c2cc(C(=O)NCC3COc4ccccc4O3)ccc2c1=O (stereo not drawn) [SW083688] | 2 °C | effective | highly specific toward TAOK2 | selective
3 | CS(=O)(=O)c1ccc2nc(NC(=O)CCCOc3ccc(Cl)cc3)sc2c1 [SW172006] | 1.3 °C | effective | highly specific toward TAOK2 | selective
